Reference: ChEMBL document CHEMBL1201862, “PubChem BioAssay data set” (2004)
Activity calls are given as the source filed them.

How the values were obtained:
Caspase-3 = target: T1, Caspase-3 (Homo sapiens, UniProt P42574); type: functional;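 note: Dose-response selectivity test against caspase-3 for candidate inhibitors of sentrin-specific proteases (SENPs)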
T1 sequence (P42574 whole entry): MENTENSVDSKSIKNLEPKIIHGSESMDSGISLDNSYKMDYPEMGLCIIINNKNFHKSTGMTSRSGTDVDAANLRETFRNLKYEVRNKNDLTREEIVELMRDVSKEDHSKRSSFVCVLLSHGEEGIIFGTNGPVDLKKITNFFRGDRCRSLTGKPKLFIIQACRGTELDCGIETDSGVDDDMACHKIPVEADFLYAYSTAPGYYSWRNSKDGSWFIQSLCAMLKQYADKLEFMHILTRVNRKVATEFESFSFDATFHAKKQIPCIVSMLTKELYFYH

[1] = target: T2, Sentrin-specific protease 7 (Homo sapiens, UniProt Q9BQF6); type: functional;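 note: Luminescence-based dose-response confirmation of ultra-high-throughput screening hits, measuring inhibition of SENP7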
T2 sequence (Q9BQF6 whole entry): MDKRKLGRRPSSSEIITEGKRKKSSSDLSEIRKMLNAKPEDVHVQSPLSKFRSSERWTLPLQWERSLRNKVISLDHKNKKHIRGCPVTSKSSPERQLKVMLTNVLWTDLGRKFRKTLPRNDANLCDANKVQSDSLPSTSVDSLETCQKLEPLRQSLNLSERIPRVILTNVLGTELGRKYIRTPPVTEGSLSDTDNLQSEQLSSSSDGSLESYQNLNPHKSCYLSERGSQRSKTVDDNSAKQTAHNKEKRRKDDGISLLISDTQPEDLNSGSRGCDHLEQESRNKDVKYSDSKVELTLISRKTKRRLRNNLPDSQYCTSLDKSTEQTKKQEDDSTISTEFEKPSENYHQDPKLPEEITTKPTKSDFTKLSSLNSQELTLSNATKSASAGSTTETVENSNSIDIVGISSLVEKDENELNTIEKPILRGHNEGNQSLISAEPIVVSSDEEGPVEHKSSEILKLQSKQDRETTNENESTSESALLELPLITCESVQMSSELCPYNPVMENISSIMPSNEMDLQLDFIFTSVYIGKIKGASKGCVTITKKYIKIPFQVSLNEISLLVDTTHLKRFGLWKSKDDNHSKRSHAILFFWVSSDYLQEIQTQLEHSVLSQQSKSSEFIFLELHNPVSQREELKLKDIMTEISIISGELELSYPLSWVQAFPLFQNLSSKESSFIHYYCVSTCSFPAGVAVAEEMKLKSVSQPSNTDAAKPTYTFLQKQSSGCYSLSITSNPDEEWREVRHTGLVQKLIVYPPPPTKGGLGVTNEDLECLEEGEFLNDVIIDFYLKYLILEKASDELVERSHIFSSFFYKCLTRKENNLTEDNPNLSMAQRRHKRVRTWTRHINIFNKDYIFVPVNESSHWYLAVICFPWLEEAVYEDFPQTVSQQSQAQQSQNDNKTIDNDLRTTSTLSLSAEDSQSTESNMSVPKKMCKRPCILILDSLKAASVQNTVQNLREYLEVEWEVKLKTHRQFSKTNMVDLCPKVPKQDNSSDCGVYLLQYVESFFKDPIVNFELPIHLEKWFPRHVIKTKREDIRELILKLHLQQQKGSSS

[2] = target: T3, Sentrin-specific protease 6 (Homo sapiens, UniProt Q9GZR1); type: functional;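 note: Luminescence-based dose-response confirmatory assay of SENP6 inhibition, following up an ultra-high-throughput screen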
T3 sequence (Q9GZR1 whole entry): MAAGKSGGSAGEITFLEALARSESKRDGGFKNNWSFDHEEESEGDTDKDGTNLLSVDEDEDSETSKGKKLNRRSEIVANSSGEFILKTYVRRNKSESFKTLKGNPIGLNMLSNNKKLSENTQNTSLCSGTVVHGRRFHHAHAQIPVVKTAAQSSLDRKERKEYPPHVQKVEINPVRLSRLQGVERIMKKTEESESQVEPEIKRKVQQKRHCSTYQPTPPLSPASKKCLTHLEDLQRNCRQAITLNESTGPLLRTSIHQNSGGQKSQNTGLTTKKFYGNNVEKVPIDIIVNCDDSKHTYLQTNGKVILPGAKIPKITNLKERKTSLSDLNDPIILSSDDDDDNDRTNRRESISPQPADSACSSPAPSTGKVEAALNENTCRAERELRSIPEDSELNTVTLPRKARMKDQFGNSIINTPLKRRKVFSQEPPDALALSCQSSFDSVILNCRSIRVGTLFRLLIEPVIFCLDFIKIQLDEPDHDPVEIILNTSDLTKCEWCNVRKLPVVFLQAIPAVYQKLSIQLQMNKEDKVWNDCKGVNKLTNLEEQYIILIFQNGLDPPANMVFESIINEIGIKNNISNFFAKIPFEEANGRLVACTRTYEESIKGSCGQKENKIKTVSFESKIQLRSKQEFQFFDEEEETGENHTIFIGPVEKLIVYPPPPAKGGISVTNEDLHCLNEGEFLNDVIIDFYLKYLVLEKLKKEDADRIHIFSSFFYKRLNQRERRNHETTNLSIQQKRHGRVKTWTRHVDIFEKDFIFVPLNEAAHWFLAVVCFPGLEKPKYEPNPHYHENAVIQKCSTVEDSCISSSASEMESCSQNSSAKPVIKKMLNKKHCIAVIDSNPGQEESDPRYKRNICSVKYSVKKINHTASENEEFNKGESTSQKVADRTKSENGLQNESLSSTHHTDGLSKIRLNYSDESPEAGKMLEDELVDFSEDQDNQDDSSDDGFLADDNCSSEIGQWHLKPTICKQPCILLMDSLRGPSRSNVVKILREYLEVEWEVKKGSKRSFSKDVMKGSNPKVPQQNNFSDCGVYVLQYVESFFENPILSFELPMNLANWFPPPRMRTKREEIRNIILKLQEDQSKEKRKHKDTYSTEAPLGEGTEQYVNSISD

[3] = target: T4, Sentrin-specific protease 8 (Homo sapiens, UniProt Q96LD8); type: functional
T4 sequence (Q96LD8 whole entry): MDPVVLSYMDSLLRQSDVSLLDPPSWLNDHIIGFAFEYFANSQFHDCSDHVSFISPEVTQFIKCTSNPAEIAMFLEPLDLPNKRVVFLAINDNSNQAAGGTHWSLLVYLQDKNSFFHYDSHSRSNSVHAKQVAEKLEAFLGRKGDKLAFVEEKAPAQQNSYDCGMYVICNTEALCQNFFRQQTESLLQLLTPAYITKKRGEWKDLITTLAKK

[4] = microbe, parasite or virus in culture; type: functional; settings: Mycobacterium tuberculosis
[5] = Luminescence Cell-Based Dose Retest to Confirm Inhibitors of Cancer Stem Cells. [Related pubchem assays (depositor defined):AID2717, AID2721]; type: functional; settings: Homo sapiens
[6] = Shn3 3'UTR reporter inhibitors, dose response, cell-based, Clone20 osteoblasts, firefly luciferase, cherry-picked (AID 624132); type: functional;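 note: firefly luciferase luminescence from reporter carrying the Shn3 3'UTR in osteoblasts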
[7] = HepG2 cell cytotoxicity, dose response, cytotoxicity control for Shn3 inhibitor project, CellTiter-Glo, cherry-picked (AID 624134); type: functional, cell-based
[8] = control 3'UTR Renilla luciferase suppression, dose response, counter-screen for Shn3 inhibitor project, cell-based, Clone20-Shn3RL, cherry-picked (AID 624133); type: functional
[9] = A Cell Based Secondary Assay To Explore Cytotoxicity of Compounds that Sensitize Mycobacterium Tuberculosis to Beta-Lactam Antibiotics.; type: functional
[10] = growth suppression of PTEN-null colon cells, dose response, cell-based, HCT116 PTEN knockout (AID 1047); type: functional;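 note: HCT116 colon tumor cells with PTEN knocked out; cells exposed to compound for 60 hours before readout; potency for loss of cell viability measured by luminescence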
[11] = growth suppression of beta-catenin-knockout colon cells, dose response, cell-based, HCT116, human colon tumor (AID 1045); type: functional;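 note: HCT116 colon tumor cells with beta catenin knocked out; cells exposed to compound for 60 hours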
[12] = inhibitors of HIV Env-driven cell fusion, dose response, cherry-pick (AID 652057); type: functional, cell-based
[13] = ZM109 Env clade C HIV-1 fusion inhibitors, dose response, HeLa effector, CEM target cells, luciferase, cherry-pick (AID 652058); type: functional, cell-based
[14] = off-target signal loss in HeLa-CEM21 co-culture – HeLa F-luc CTL cells, cherry-picked, counter-screen for HIV-1 Env fusion inhibitor project, dose response (AID 652040); type: functional, cell-based;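 note: potency for signal decrease marking cytotoxic or nonspecific inhibition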
[15] = inhibitors of clade B AD8 Env fusion, dose response, cell-based, cherry-pick (AID 652062); type: functional;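 note: luciferase signal from cell-cell fusion driven by HIV-1 clade B AD8 Env; potency is for inhibitors of fusion seen as a drop in luminescence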
[16] = target: FAD-linked sulfhydryl oxidase ALR (Homo sapiens, UniProt P55789); assay: inhibitors of human ALR sulfhydryl oxidase, dose response, biochemical, H2O2 detection, luminescence, cherry-pick (AID 493248)
[17] = target: T4, Sentrin-specific protease 8; type: functional; remark: listed apart in the source
[18] = target: T4, Sentrin-specific protease 8; type: functional; remark: listed apart in the source
Paired box protein Pax-8 = Paired box protein Pax-8 (Homo sapiens, UniProt Q06710); assay: inhibitors of PAX8-driven TPO luciferase reporter, dose response, RMG-I cells, cherry-pick (AID 687027); type: functional, cell-based;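 note: luciferase reporter driven by Pax8 target thyroperoxidase promoter measured by SteadyGlo luminescence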
[19] = NIH:OVCAR-3 ovarian cancer cell cytotoxicity, dose response, PAX8 inhibitor project, plate reader, dry powder samples (AID 743044); type: functional, cell-based
[20] = cytotoxicity in OVCAR8 ovarian cancer cells, dose response, PAX8 project, cell-based, plate reader, dry powder samples (AID 743197); type: functional; settings: OVCAR-8

Sequence of Paired box protein Pax-8 (Q06710 whole entry): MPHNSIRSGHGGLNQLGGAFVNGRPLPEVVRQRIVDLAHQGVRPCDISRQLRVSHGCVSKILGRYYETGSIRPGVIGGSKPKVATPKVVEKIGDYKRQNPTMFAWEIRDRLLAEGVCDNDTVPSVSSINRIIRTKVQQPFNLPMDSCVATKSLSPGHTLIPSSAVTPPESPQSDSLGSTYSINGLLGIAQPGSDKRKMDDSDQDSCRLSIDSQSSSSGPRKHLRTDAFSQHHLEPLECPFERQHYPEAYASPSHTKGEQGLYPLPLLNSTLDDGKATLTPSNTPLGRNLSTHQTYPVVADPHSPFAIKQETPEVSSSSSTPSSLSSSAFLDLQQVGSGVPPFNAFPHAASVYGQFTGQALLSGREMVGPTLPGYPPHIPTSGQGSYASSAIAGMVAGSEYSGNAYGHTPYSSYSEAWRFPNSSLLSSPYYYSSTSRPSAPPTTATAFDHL
Sequence of FAD-linked sulfhydryl oxidase ALR (P55789 whole entry): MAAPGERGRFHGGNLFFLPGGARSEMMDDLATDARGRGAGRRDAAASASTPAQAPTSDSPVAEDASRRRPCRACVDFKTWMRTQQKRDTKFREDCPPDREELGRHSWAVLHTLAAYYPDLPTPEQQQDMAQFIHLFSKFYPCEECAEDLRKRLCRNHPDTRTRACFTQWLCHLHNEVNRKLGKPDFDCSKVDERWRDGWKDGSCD

**Q.** For COC(=O)c1ccc(-c2ccc(F)cc2)nc1C, which IC50 (Caspase-3) is on record?
**A.** 13.2 µM (active)

**Q.** What about the IC50 [1] of the same compound?
**A.** 8.25 µM (active)

**Q.** And the IC50 [2]?
**A.** 31.9 µM (active)

**Q.** What about the IC50 [3] of the same compound?
**A.** 64.9 µM (active)

**Q.** For CCOc1cc2c(cc1OCC)-n1cccc1C(c1ccc(C(C)C)cc1)NC2 (centres undefined), which CC50 [4] is on record?
**A.** > 40 µM (active)

**Q.** And the AC50 [5]?
**A.** 11.4 µM (active)

**Q.** What about the AC50 [6] of the same compound?
**A.** 7.22 µM (active)

**Q.** What about the AC50 [7] of the same compound?
**A.** 67.7 µM (active)

**Q.** And the AC50 [8]?
**A.** 4.99 µM (active)

**Q.** For Cc1ccc(C(=O)c2sc3c(c2N)c(=O)[nH]c(=O)n3CCc2ccccc2)cc1, which CC50 [9] is on record?
**A.** 25.1 µM (active)

**Q.** And the EC50 [10]?
**A.** 10.7 µM (active)

**Q.** What about the EC50 [11] of the same compound?
**A.** 9.5 µM (active)

**Q.** Which results are given for CCOC(=O)C1(Cc2ccc(Cl)cc2)CCN(C(C)Cc2ccc(O)c(OC)c2)CC1 (centres undefined)?
**A.** AC50 [6]: 1.33 µM (active); AC50 [7]: 17.6 µM (active); AC50 [8]: 2.65 µM (active)

**Q.** With COc1ccccc1N1CCN(S(=O)(=O)c2ccc3[nH]c(-c4ccccc4)nc3c2)CC1 as the compound, how does the CC50 [9] read?
**A.** > 40 µM (active)

**Q.** For CN(c1ccccc1)S(=O)(=O)c1ccc(Cl)c(C(=O)Nc2nc3ccccc3[nH]2)c1, which AC50 [12] is on record?
**A.** 3.18 µM (active)

**Q.** And the AC50 [13]?
**A.** 1.6 µM (active)

**Q.** And the AC50 [14]?
**A.** 5.75 µM (active)

**Q.** And the AC50 [15]?
**A.** 5.66 µM (active)

**Q.** For COc1cccc(C(=O)NC(=S)Nc2ccc(N(C)C)cc2)c1, which IC50 (Caspase-3) is on record?
**A.** 10.7 µM (active)

**Q.** And the IC50 [1]?
**A.** 6.14 µM (active)

**Q.** What about the IC50 [2] of the same compound?
**A.** 16.1 µM (active)

**Q.** And the IC50 [3]?
**A.** 21 µM (active)

**Q.** Which CC50 [9] does the source give for COc1ccc(/C=C2/CCCC(C(=O)C(F)(F)F)=C2O)cc1OC here?
**A.** > 40 µM (active)

**Q.** With CN(C)c1ccc(NC(=O)Oc2ccccc2)cc1 as the compound, how does the AC50 [16] read?
**A.** 1.88 µM (active)

**Q.** What about the IC50 [17] of the same compound?
**A.** > 100 µM (inactive)

**Q.** What about the IC50 [18] of the same compound?
**A.** 78.1 µM (inactive)

**Q.** With O=C(Nc1ccc(S(=O)(=O)N2CCCCC2)cc1)C1CCCN(C(=O)c2ccc(Cl)cc2)C1 (centres undefined) as the compound, how does the CC50 [9] read?
**A.** > 40 µM (active)

**Q.** Which AC50 [12] does the source give for COc1ccc(C(C(=O)NC(C)(C)C)N(CCC(C)C)C(=O)CCC(=O)Nc2cc(C)on2)cc1 (centres undefined) here?
**A.** 7.02 µM (active)

**Q.** And the AC50 [13]?
**A.** 18.1 µM (active)

**Q.** And the AC50 [14]?
**A.** 16.6 µM (active)

**Q.** And the AC50 [15]?
**A.** 22.8 µM (active)

**Q.** With CC(C)(C)NCCCOc1ccc(Cl)cc1C(C)(C)C as the compound, how does the CC50 [9] read?
**A.** 39.3 µM (active)

**Q.** Which AC50 [12] does the source give for COC(=O)[C@@]1(C)[C@H]2C(=O)N(Cc3ccccc3)C(=O)[C@H]2[C@H]2CN=C(SCc3ccc(C#N)cc3)N21 here?
**A.** 0.566 µM (active)

**Q.** What about the AC50 [13] of the same compound?
**A.** 0.785 µM (active)

**Q.** What about the AC50 [14] of the same compound?
**A.** 1.09 µM (active)

**Q.** And the AC50 [15]?
**A.** 0.609 µM (active)

**Q.** Which results are given for CCOc1ccccc1Nc1cc(C)nc2ccccc12?
**A.** AC50 [6]: 8.14 µM (active); AC50 [7]: 48.6 µM (active); AC50 [8]: 5.31 µM (active)

**Q.** What does the source list for C[C@H](CO)N1C[C@H](C)[C@H](CN(C)C(=O)c2ccncc2)OCc2ccccc2-c2c(n(C)c3ccccc23)C1=O?
**A.** AC50 [12]: 9.94 µM (active); AC50 [13]: 4.23 µM (active); AC50 [15]: 33.1 µM (active)

**Q.** Which AC50 (Paired box protein Pax-8) does the source give for O=C(Nc1ccc(F)cc1)N1CC(=O)N2[C@@H](CO)[C@@H](c3ccc(C#Cc4ccc(F)cc4)cc3)[C@@H]2C1 here?
**A.** 10.4 µM (active)

**Q.** And the AC50 [19]?
**A.** 16.2 µM (active)

**Q.** What about the AC50 [20] of the same compound?
**A.** > 70 µM (inactive)

**Q.** For C[C@H]1CN([C@@H](C)CO)C(=O)c2c(c3ccccc3n2C)-c2ccccc2CO[C@@H]1CN(C)S(=O)(=O)c1ccsc1, which AC50 (Paired box protein Pax-8) is on record?
**A.** 3.6 µM (active)

**Q.** What about the AC50 [19] of the same compound?
**A.** 51.1 µM (active)
